What was measured:
[1] = tested on: LPS-induced TNFα in monocyte-derived macrophages (MdM); test: MdM assay: LPS-triggered TNFα (ELISA); format: cell-based, human; conditions: Homo sapiens, Macrophage, 20 h, monocyte-derived macrophages, LPS 200 ng/mL, supernatant after 20 h; read-out: TNFα EC50
Method in brief: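 Compound added 1 h before LPS (200 ng/mL final) to day-10 macrophages derived from magnetically isolated CD14+ human blood monocytes, DMSO held at 0.2%. TNFα secreted over 20 h of stimulation quantified by ELISA against a standard curve.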

IL-10 = test: Mouse LPS-induced endotoxic shock, plasma IL-10; format: in vivo; set-up: key: +: statistically significant induction of IL-10; −: no effect on the level of IL-10; conditions: 3 mg/kg, p.o.; plasma 90 min after LPS challenge
Procedure: (§1) Injection of lipopolysaccharide (LPS) induces a rapid release of soluble tumour necrosis factor (TNFα) into the periphery. This model was used to assess prospective blockers of TNFα release in vivo.
(§2) Lipopolysaccharide (LPS) from Escherichia Coli serotype O111:B4 was obtained from Sigma Aldrich (Cat #L2630).
(§3) BALB/cAnNCrl mice (female, 18-20 g body weight) were obtained from Charles River (Calco, Italy). Mice were kept on a 12 h light/dark cycle. Temperature was maintained at 22±2° C., food and water were provided ad libitum.
(§4) Mice were dosed once by oral (p.o.) or subcutaneous (sc) route with the tested compound in the appropriate vehicle.
(§5) At the Tmax of compound, 100 μg of LPS (in H2O) was injected intraperitoneally to mice. A control group was included which comprises administering the vehicle without an LPS challenge.
(§6) Mice were sacrificed 90 min after LPS challenge and blood was collected in heparinised tubes. Plasma was obtained by centrifugation for 15 min, 2000×g at +4° C. and frozen at −80° C. before cytokine analysis.
(§7) TNFα and IL-10 were quantified in plasma by AlphaLISA detection kits obtained from PerkinElmer (Massachusetts, USA), Cat4 AL505C and AL502C, respectively.
(§8) Statistics were performed with Prism 5.03 software (GraphPad) using an ANOVA analysis of variance with Dunnett's post-hoc test versus LPS group.
(§9) Active compounds were defined as showing a statistically significant decrease in TNFα with or without a statistically significant induction of IL-10

SIK3 = target: T1, SIK3 (Homo sapiens, UniProt Q9Y2K2); test: ADP-Glo kinase assay, SIK3; format: biochemical; conditions: ADP-Glo SIK kinase assay
T1 construct: purchased SignalChem S12-11G-100
Method in brief: (§10)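 ADP-Glo luminescent assay of ADP formed by SIK2 or SIK3 with substrate after ATP addition, 120 min at RT. Remaining ATP depleted 40 min, then ADP converted to ATP and read by luciferase luminescence after 30 min. Controls: 1% DMSO and 10 μM staurosporine (final).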

SIK2 = target: T2, SIK2 (Homo sapiens, UniProt Q9H0K1); test: ADP-Glo kinase assay, SIK2; format: biochemical; conditions: ADP-Glo SIK kinase assay
T2 construct: purchased ThermoFisher Scientific PV4792
Method in brief: as §10

TNFα = test: Mouse LPS-induced endotoxic shock, plasma TNFα; format: in vivo; set-up: key: +: statistically significant inhibition of TNFα; −: no effect on the level of TNFα; conditions: 3 mg/kg, p.o.; plasma 90 min after LPS challenge
Procedure: as §1, §2, §3, §4, §5, §6, §7, §8, §9

SIK1 = target: T3, SIK1 (Homo sapiens, UniProt P57059); test: ADP-Glo kinase assay, SIK1; format: biochemical; conditions: ADP-Glo SIK kinase assay
T3 construct: purchased Carna Biosciences 02-131
Method in brief: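 Enzyme–substrate mix was started with ATP and incubated 120 min at RT. ADP formed was quantified by ADP-Glo: 40 min ATP depletion, then 30 min detection reagent converting ADP to ATP for luciferase luminescence, which rises with kinase activity. Controls: 1% DMSO and 10 μM staurosporine (final).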

[2] = tested on: LPS-induced TNFα in monocytes; test: Monocytes assay: LPS-triggered TNFα (ELISA); format: cell-based, human; conditions: Homo sapiens, Monocyte, LPS 200 ng/mL, supernatant after 4 h
Method in brief: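 Supernatant TNFα was quantified by luminol-based sandwich ELISA after 4 h stimulation with LPS (200 ng/mL final). The cells were CD14-bead-purified monocytes from human PBMCs, 100 000 per well, exposed to 3-fold compound dilutions for 1 h at 37° C beforehand, with DMSO at 0.2%. Results are reported as percent inhibition.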

[3] = tested on: LPS triggered IL-10 secretion in monocytes; test: Monocytes assay: LPS-triggered IL-10 (ELISA); format: cell-based, human; conditions: LPS 200 ng/mL, supernatant after 4 h, maximal fold change vs LPS only
Method in brief: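 Human CD14+ monocytes, magnetically isolated from buffy-coat PBMCs, were seeded at 100 000 cells/well and preincubated with compound for 1 h at 37° C (0.2% DMSO). LPS was then added at a final 200 ng/mL for 4 h. Supernatant IL-10 was quantified by chemiluminescent sandwich ELISA against a standard curve.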

T3 sequence (P57059 whole entry): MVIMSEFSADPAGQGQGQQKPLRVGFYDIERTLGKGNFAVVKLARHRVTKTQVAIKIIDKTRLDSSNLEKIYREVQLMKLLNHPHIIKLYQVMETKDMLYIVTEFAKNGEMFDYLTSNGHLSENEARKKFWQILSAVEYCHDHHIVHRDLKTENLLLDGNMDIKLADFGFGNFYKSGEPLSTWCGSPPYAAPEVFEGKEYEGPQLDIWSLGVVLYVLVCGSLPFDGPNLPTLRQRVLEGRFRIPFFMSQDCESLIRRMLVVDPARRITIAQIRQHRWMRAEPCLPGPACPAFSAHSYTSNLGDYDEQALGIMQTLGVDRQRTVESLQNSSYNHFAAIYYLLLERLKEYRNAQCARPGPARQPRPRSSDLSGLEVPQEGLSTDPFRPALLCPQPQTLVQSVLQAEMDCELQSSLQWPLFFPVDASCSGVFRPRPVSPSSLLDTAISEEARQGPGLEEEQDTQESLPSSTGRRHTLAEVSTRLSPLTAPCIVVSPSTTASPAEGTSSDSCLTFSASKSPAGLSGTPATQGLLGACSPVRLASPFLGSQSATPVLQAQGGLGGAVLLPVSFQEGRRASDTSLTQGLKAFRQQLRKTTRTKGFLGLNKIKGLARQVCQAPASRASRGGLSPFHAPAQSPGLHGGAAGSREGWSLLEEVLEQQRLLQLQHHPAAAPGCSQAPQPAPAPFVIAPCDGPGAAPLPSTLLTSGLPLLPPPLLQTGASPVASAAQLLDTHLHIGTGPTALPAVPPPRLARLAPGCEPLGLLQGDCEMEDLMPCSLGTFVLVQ
T1 sequence (Q9Y2K2 whole entry): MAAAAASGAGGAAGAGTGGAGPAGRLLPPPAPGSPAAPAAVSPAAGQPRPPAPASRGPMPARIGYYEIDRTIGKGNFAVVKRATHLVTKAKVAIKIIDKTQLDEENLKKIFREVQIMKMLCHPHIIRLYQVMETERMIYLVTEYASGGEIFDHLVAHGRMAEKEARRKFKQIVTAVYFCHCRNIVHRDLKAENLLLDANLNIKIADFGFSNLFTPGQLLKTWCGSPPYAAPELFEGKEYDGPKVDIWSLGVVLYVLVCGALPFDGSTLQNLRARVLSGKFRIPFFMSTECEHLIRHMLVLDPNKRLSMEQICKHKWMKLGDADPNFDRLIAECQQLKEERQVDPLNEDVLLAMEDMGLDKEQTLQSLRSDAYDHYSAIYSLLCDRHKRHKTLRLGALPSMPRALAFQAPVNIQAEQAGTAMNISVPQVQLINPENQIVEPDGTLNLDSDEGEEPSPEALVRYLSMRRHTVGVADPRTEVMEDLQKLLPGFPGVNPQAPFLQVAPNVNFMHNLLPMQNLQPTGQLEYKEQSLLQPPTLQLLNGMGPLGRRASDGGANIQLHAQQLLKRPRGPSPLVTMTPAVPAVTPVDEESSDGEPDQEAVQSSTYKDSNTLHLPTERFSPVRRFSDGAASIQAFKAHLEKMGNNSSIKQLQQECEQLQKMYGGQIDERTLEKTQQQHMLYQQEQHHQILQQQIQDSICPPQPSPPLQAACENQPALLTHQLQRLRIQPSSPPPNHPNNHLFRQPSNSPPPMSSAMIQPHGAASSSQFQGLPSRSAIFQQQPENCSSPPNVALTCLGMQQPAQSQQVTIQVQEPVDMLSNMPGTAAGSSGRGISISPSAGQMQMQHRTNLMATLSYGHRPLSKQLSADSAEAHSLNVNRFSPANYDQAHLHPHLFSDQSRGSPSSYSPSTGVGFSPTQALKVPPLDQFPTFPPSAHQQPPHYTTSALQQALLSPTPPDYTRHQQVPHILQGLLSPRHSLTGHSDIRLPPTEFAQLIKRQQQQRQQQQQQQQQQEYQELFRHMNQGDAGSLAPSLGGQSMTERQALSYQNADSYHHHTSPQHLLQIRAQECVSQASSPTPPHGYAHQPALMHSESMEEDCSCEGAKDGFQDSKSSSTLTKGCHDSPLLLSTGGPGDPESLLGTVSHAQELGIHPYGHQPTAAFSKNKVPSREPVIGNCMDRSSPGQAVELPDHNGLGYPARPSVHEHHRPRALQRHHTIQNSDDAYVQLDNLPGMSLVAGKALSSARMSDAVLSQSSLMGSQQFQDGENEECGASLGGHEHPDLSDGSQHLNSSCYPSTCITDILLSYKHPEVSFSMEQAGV
T2 sequence (Q9H0K1 whole entry): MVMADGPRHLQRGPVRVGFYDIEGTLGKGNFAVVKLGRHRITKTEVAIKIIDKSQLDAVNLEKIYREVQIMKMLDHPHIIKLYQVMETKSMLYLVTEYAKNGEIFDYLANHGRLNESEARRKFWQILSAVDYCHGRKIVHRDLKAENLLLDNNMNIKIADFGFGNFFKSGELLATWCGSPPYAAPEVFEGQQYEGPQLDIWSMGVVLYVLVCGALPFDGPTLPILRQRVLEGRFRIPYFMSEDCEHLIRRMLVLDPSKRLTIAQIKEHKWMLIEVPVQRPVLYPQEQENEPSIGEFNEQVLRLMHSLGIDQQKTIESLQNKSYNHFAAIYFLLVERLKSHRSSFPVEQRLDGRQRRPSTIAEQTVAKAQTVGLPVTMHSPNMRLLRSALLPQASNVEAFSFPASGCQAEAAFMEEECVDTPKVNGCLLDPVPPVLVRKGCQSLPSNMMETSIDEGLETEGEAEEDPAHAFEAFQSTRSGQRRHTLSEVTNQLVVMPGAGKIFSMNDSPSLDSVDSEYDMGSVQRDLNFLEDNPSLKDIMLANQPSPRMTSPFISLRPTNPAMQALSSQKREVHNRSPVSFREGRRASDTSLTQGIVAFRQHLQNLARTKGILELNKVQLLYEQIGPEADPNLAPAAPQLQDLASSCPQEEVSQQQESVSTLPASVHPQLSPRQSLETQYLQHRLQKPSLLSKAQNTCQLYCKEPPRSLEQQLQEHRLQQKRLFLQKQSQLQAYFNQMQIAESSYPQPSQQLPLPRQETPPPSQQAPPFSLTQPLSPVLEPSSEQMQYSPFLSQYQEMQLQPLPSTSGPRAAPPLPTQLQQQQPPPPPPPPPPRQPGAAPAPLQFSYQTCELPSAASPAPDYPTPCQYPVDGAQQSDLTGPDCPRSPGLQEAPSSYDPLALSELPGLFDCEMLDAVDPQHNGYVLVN

| Structure (SMILES) | EC50 [1] [nM] | IC50 (SIK3) [nM] | IC50 (SIK2) [nM] | IC50 (SIK1) [nM] | EC50 ([2]; 4 h) [nM] | IL-10 (IL-10) | TNFα (TNFα) | EC50 [2] [nM] | IL-10 FCmax median [3] |
| --- | --- | --- | --- | --- | --- | --- | --- | --- | --- |
| CCOC(=O)C1(c2ccccc2)CCN(CCCOc2ccn3c(-c4cc(OC)c(C(=O)NC5CC5)c(OC(F)F)c4)cnc3c2)CC1 [compound 378, ethyl 1-[3-[3-[4-(cyclopropylcarbamoyl)-3-(difluoromethoxy)-5-methoxy-phenyl]imidazo[1,2-a]pyridin-7-yl]oxypropyl]-4-phenyl-piperidine-4-carboxylate] |  | 0.01 to 10 | 0.01 to 10 | 10 to 100 |  |  |  | 0.1 to 100 | ++ (>1.5-4.5) |
| CCOC(=O)C1(O)CCN(CC(O)COc2ccn3c(-c4cc(OC)c(C(=O)NC5CC5)c(OC(F)F)c4)cnc3c2)CC1 (stereo not drawn) [compound 383, ethyl 1-[3-[3-[4-(cyclopropylcarbamoyl)-3-(difluoromethoxy)-5-methoxy-phenyl]imidazo[1,2-a]pyridin-7-yl]oxy-2-hydroxy-propyl]-4-hydroxy-piperidine-4-carboxylate] |  | 0.01 to 10 | 0.01 to 10 | 10 to 100 | 100 to 1000 |  |  |  | ++ (>1.5-4.5) |
| CCOC(=O)C1(C)CN(CCCOc2ccn3c(-c4cc(OC)c(C(=O)NC5CC5)c(OC(F)F)c4)cnc3c2)C1 [compound 385, ethyl 1-[3-[3-[4-(cyclopropylcarbamoyl)-3-(difluoromethoxy)-5-methoxy-phenyl]imidazo[1,2-a]pyridin-7-yl]oxypropyl]-3-methyl-azetidine-3-carboxylate] |  | 0.01 to 10 | 0.01 to 10 | 10 to 100 | 0.1 to 100 |  |  |  | +++ (>4.5) |
| COC(=O)[C@@H]1CN(CC(O)COc2ccn3c(-c4cc(OC)c(C(=O)NC5CC5)c(OC(F)F)c4)cnc3c2)CCO1 (stereo partly drawn) [compound 388, methyl (2S)-4-[3-[3-[4-(cyclopropylcarbamoyl)-3-(difluoromethoxy)-5-methoxy-phenyl]imidazo[1,2-a]pyridin-7-yl]oxy-2-hydroxy-propyl]morpholine-2-carboxylate] |  | 0.01 to 10 | 0.01 to 10 | 10 to 100 | 100 to 1000 |  |  |  | +++ (>4.5) |
| COc1cc(-c2cnc3cc(OCC(O)CN4CC(C(=O)OC(C)(C)C)C4)ccn23)cc(OC(F)F)c1C(=O)NC1CC1 (stereo not drawn) [compound 394, tert-butyl 1-[3-[3-[4-(cyclopropylcarbamoyl)-3-(difluoromethoxy)-5-methoxy-phenyl]imidazo[1,2-a]pyridin-7-yl]oxy-2-hydroxy-propyl]azetidine-3-carboxylate] |  | 0.01 to 10 | 0.01 to 10 | 10 to 100 | 0.1 to 100 |  |  |  | ++ (>1.5-4.5) |

Continued, in another order:

| EC50 [1] [nM] | IC50 (SIK3) [nM] | IC50 (SIK2) [nM] | IC50 (SIK1) [nM] | EC50 ([2]; 4 h) [nM] | Structure (SMILES) | IL-10 (IL-10) | TNFα (TNFα) | EC50 [2] [nM] | IL-10 FCmax median [3] |
| --- | --- | --- | --- | --- | --- | --- | --- | --- | --- |
| 0.1 to 100 | 0.01 to 10 | 0.01 to 10 | 10 to 100 |  | COc1cc(-c2cnc3cc(OCCCN4CCCCC4)ccn23)cc(OC(F)F)c1C(=O)NC1CC1 [compound 16, N-cyclopropyl-2-(difluoromethoxy)-6-methoxy-4-[7-[3-(1-piperidyl)propoxy]imidazo [1,2-a]pyridin-3-yl]benzamide] | − | − |  |  |
|  | 0.01 to 10 | 0.01 to 10 | 10 to 100 | 100 to 1000 | COc1cc(-c2cnc3cc(OCC(O)CN4CCC(O)CC4)ccn23)cc(OC(F)F)c1C(=O)NC1CC1 (stereo not drawn) [compound 379, N-cyclopropyl-2-(difluoromethoxy)-4-[7-[2-hydroxy-3-(4-hydroxy-1-piperidyl)propoxy]imidazo [1,2-a]pyridin-3-yl]-6-methoxy-benzamide] |  |  |  | ++ (>1.5-4.5) |
|  | 0.01 to 10 | 0.01 to 10 | 10 to 100 | 0.1 to 100 | CCOC(=O)C1(C)CCN(CCCOc2ccn3c(-c4cc(OC)c(C(=O)NC5CC5)c(OC(F)F)c4)cnc3c2)CC1 [compound 380, ethyl 1-[3-[3-[4-(cyclopropylcarbamoyl)-3-(difluoromethoxy)-5-methoxy-phenyl]imidazo[1,2-a]pyridin-7-yl]oxypropyl]-4-methyl-piperidine-4-carboxylate] |  |  |  | ++ (>1.5-4.5) |
|  | 0.01 to 10 | 0.01 to 10 | 10 to 100 | 0.1 to 100 | CCOC(=O)C1(O)CCN(CCCOc2ccn3c(-c4cc(OC)c(C(=O)NC5CC5)c(OC(F)F)c4)cnc3c2)CC1 [compound 381, ethyl 1-[3-[3-[4-(cyclopropylcarbamoyl)-3-(difluoromethoxy)-5-methoxy-phenyl]imidazo[1,2-a]pyridin-7-yl]oxypropyl]-4-hydroxy-piperidine-4-carboxylate] |  |  |  | ++ (>1.5-4.5) |
|  | 0.01 to 10 | 0.01 to 10 | 10 to 100 | 0.1 to 100 | CCOC(=O)C1(C)CCN(CC(O)COc2ccn3c(-c4cc(OC)c(C(=O)NC5CC5)c(OC(F)F)c4)cnc3c2)CC1 (stereo not drawn) [compound 382, ethyl 1-[3-[3-[4-(cyclopropylcarbamoyl)-3-(difluoromethoxy)-5-methoxy-phenyl]imidazo[1,2-a]pyridin-7-yl]oxy-2-hydroxy-propyl]-4-methyl-piperidine-4-carboxylate] |  |  |  | ++ (>1.5-4.5) |

Source: patent US12264156B2, “Compounds and pharmaceutical compositions thereof for the treatment of diseases” (GALAPAGOS NV, priority 2018, dated 2025)
